Measurements reported in patent US5753681A, “Treatment and prophylaxis of pancreatitis” (Sankyo Company, Limited, priority 1996, dated 1998).

Columns and labels:
[1] = Acute toxicity; format: in vivo, ddY mice (male); settings: oral dose of 300 mg/kg or more
Method: Acute toxicity was assayed by conventional procedures. […] At the end of this time, the animals were all alive. When the acute toxicities of Compounds No. 2, 3, 4 and 10 were measured in the same manner, the mice were all alive after an oral dose of 300 mg/kg or more.

[2] = Histopathology of pancreatic tissue of Example 3: total cross-sectional area and cicatrized area; format: in vivo, male WBN/Kob rats; settings: doses of Example 3
Method: The measurement of the cicatrized area may also be carried out by conventional procedures. More specifically, male WBN/Kob rats are used as models of spontaneous chronic pancreatitis and are fed with a powdered feed admixed with a test compound. The pancreas of each animal is then totally enucleated. Its weight is measured and also the cicatrized area is measured relative to the total cross-sectional area of the pancreas tissue sliced by an image analyser.
(§1) The procedure described in Example 2 was repeated, except that the test compound was pioglitazone ("the pioglitazone group"), BRL-49653 ("the BRL-49653 group"), or Compound A ("the Compound A group").
In order to evaluate the results of Example 2 histopathologically, each pancreas used for weight measurement in Example 2 was fixed in 10% neutral formalin. It was then divided into a spleen side half and a duodenum side half, and each half was sliced at 3 mm intervals to provide cross-sectional tissue pieces. All of these tissue pieces were subjected to paraffin sectioning by conventional procedures and then to hematoxylin-eosin staining and Masson's trichrome staining to prepare two tissue preparations, which were used for histopathological examination. The total cross-sectional area of the pancreatic tissue piece on each preparation was measured using an image analyser (SPICCAII, manufactured by Olympus Optical Co., Ltd.).
In addition, the surface area of the zone which had undergone degeneration and necrosis and in which the exocrine pancreatic tissue was replaced with connective tissue (the cicatrized area) was measured using an image analyser.
In order to evaluate the results of Example 3 histopathologically, the total cross-sectional area and cicatrized area of each pancreas whose weight was measured in Example 3 was measured by the procedure described in Example 4.

[3] = Suppression of the decrease in the pancreatic weight in a model of spontaneous chronic pancreatitis; format: in vivo, male WBN/Kob rats; settings: in feed: pioglitazone 0.05% (25 mg/kg/day), BRL-49653 0.005% (2.5), Compound A 0.005% (3.0); three months; normal 1152 ± 43, control 680 ± 26; ***p < 0.001 (pioglitazone, BRL-49653), **p < 0.01 (Compound A)
From the text: The test animals were male WBN/Kob rats, which are commonly used as models of spontaneous chronic pancreatitis and suffer pancreatic weight loss and dysfunction of the exocrine pancreatic tissue due to degeneration and necrosis of the pancreatic parenchyma and its replacement by connective tissue [Tsuchitani et al., Laboratory Animals, 19(3), 200-207, (1985)]. Each group of test animals contained 4 animals, and the animals were used for the experiment when they had reached 12 weeks old. The animals were fed with powdered feed F2 mixed with 0.2% of troglitazone for three months. This group is hereinafter referred to as "the treated group". The average dose of the compound during this period was 140 mg/kg/day. Meanwhile, another four rats (control group) were fed with the powdered feed F2 only. After the rats had been fed with the feeds for three months, the pancreas of each animal was totally enucleated and its weight was measured.
as §1

[4] = duodenum side, control 5.52 ± 0.86, **p < 0.01 all three
[5] = duodenum side, control 90.3 ± 14.9
[6] = spleen side pancreatic half, control 8.11 ± 0.76, *p < 0.05 pioglitazone, **p < 0.01 Compound A
[7] = spleen side pancreatic half, control 99.3 ± 9.8, **p < 0.01 pioglitazone, *p < 0.05 BRL-49653

SMILES | Survival (acute toxicity) [1] | Cicatrized area in the exocrine pancreatic tissue [2, 4] [mm^2] | Total cross-sectional area of pancreatic tissue piece [2, 5] [mm^2] | Cicatrized area in the exocrine pancreatic tissue [2, 6] [mm^2] | Total cross-sectional area of pancreatic tissue piece [2, 7] [mm^2] | Pancreatic weight [3] [mg]
CC1(COc2ccc(CC3SC(=O)NC3=O)cc2)CCc2cc(O)ccc2O1 (stereo not shown) [compound 3] | all alive | – | – | – | – | –
Cc1c(C)c2c(c(C)c1O)CCC(COc1ccc(CC3SC(=O)NC3=O)cc1)O2 (stereo not shown) [compound 2] | all alive | – | – | – | – | –
CCc1ccc(CCOc2ccc(CC3SC(=O)NC3=O)cc2)nc1 (stereo not shown) [Pioglitazone, 5-{4-[2-(5-Ethylpyridin-2-yl)ethoxy]benzyl}thiazolidine-2,4-dione] | – | 1.12 ± 0.26 | 122.0 ± 9.8 | 4.98 ± 1.03 | 157.8 ± 16.1 | 982 ± 52
CN(CCOc1ccc(CC2SC(=O)NC2=O)cc1)c1ccccn1 (stereo not shown) [BRL-49653, 5-[4-{2-[N-Methyl-N-(pyridin-2-yl)amino]ethoxy}benzyl]-thiazolidine-2,4-dione] | – | 1.21 ± 0.40 | 100.9 ± 2.1 | 5.40 ± 1.35 | 147.2 ± 14.2 | 976 ± 51
CC1(COc2ccc(CC3SC(=O)NC3=O)cc2)CCc2cc(O)c(C(C)(C)C)cc2O1 (stereo not shown) [compound 4, 5-[4-(6-Hydroxy-2-methyl-7-t-butylchroman-2-ylmethoxy)benzyl]thiazolidine-2,4-dione] | all alive | – | – | – | – | –
CCOC(=O)Oc1c(C)c(C)c2c(c1C)CCC(C)(COc1ccc(CC3SC(=O)NC3=O)cc1)O2 (stereo not shown) [compound 10, 5-[4-(6-Ethoxycarbonyloxy-2,5,7,8-tetramethylchroman-2-ylmethoxy)benzyl]-thiazolidine-2,4-dione] | all alive | – | – | – | – | –
CC(=NOCCOc1ccc(CC2SC(=O)NC2=O)cc1)c1ccc(-c2ccccn2)cc1 (stereo not shown) [Compound A, 5-(4-{2-[1-(4-2'-pyridylphenyl)ethylideneaminooxy]ethoxy}-benzyl)thiazolidine-2,4-dione] | – | 1.17 ± 0.15 | 90.3 ± 10.2 | 2.62 ± 0.51 | 100.8 ± 12.5 | 853 ± 44
